Results as given in the NIST ThermoML archive (doi:10.1021/je400122k).
± gives the expanded uncertainty stated by the source.

Conditions: Liquid; for speed of sound: Pulse-echo method; for mass density: Vibrating tube method

CCCCCCCCCCCCCC(=O)OCC [ethyl tetradecanoate]
Conditions	mass density [kg/m3]	speed of sound [m/s]
293.15 K, 100 kPa	–	1360.6 ± 5.6
293.15 K, 101.3 kPa	861 ± 1	–
293.15 K, 10000 kPa	867.5 ± 1	1408 ± 5.8
293.15 K, 20000 kPa	873.2 ± 1.1	1453.3 ± 6
293.15 K, 30000 kPa	878.7 ± 1.1	1494.5 ± 6.1
293.15 K, 40000 kPa	883.8 ± 1.1	1533.5 ± 6.3
293.15 K, 50000 kPa	888.7 ± 1.1	1568.2 ± 6.4
293.15 K, 60000 kPa	893.6 ± 1.1	–
303.15 K, 100 kPa	–	1321.8 ± 5.5
303.15 K, 101.3 kPa	853.3 ± 1	–
303.15 K, 10000 kPa	860.2 ± 1	1370.9 ± 5.7
303.15 K, 20000 kPa	866.2 ± 1.1	1416.8 ± 5.8
303.15 K, 30000 kPa	871.9 ± 1.1	1460.6 ± 6
303.15 K, 40000 kPa	877.3 ± 1.1	1500.8 ± 6.2
303.15 K, 50000 kPa	882.2 ± 1.1	1539.9 ± 6.3
303.15 K, 60000 kPa	887 ± 1.1	–
303.15 K, 70000 kPa	891.7 ± 1.1	–
303.15 K, 80000 kPa	896 ± 1.1	–
303.15 K, 90000 kPa	900.3 ± 1.1	–
303.15 K, 100000 kPa	904.4 ± 1.1	–
313.15 K, 101.3 kPa	845.6 ± 1	–
313.15 K, 10000 kPa	852.7 ± 1	–
313.15 K, 20000 kPa	859 ± 1.1	–
313.15 K, 30000 kPa	864.9 ± 1.1	–
313.15 K, 40000 kPa	870.5 ± 1.1	–
313.15 K, 50000 kPa	875.7 ± 1.1	–
313.15 K, 60000 kPa	880.8 ± 1.1	–
313.15 K, 70000 kPa	885.5 ± 1.1	–
313.15 K, 80000 kPa	890.8 ± 1.1	–
313.15 K, 90000 kPa	894.9 ± 1.1	–
313.15 K, 100000 kPa	899.1 ± 1.2	–
323.15 K, 100 kPa	–	1251.8 ± 5.2
323.15 K, 101.3 kPa	838.5 ± 1	–
323.15 K, 10000 kPa	845.4 ± 1	1304.5 ± 5.4
323.15 K, 20000 kPa	852 ± 1.1	1353.4 ± 5.6
323.15 K, 30000 kPa	858.2 ± 1.1	1398.6 ± 5.8
323.15 K, 40000 kPa	863.9 ± 1.1	1441.1 ± 5.9
323.15 K, 50000 kPa	869.2 ± 1.1	1482.4 ± 6.1
323.15 K, 60000 kPa	874.7 ± 1.1	1519.7 ± 6.2
323.15 K, 70000 kPa	879.8 ± 1.1	1555.8 ± 6.4
323.15 K, 80000 kPa	884.5 ± 1.1	1590.8 ± 6.5
323.15 K, 90000 kPa	888.9 ± 1.2	1624.6 ± 6.6
323.15 K, 100000 kPa	893.1 ± 1.2	1655.7 ± 6.8
333.15 K, 101.3 kPa	830.6 ± 1	–
333.15 K, 10000 kPa	838 ± 1	–
333.15 K, 20000 kPa	844.9 ± 1.1	–
333.15 K, 30000 kPa	851.3 ± 1.1	–
333.15 K, 40000 kPa	857.2 ± 1.1	–
333.15 K, 50000 kPa	862.9 ± 1.1	–
333.15 K, 60000 kPa	868.2 ± 1.1	–
333.15 K, 70000 kPa	874 ± 1.1	–
333.15 K, 80000 kPa	878 ± 1.2	–
333.15 K, 90000 kPa	883.4 ± 1.2	–
333.15 K, 100000 kPa	888 ± 1.2	–
343.15 K, 100 kPa	–	1184.7 ± 4.9
343.15 K, 101.3 kPa	823.2 ± 1	–
343.15 K, 10000 kPa	831.1 ± 1	1241.3 ± 5.1
343.15 K, 20000 kPa	838.6 ± 1.1	1293 ± 5.3
343.15 K, 30000 kPa	845.2 ± 1.1	1341.9 ± 5.5
343.15 K, 40000 kPa	851.3 ± 1.1	1386.7 ± 5.7
343.15 K, 50000 kPa	857.1 ± 1.1	1428.8 ± 5.9
343.15 K, 60000 kPa	862.5 ± 1.1	1468.1 ± 6
343.15 K, 70000 kPa	867.7 ± 1.1	1506.4 ± 6.2
343.15 K, 80000 kPa	872.8 ± 1.2	1541.9 ± 6.3
343.15 K, 90000 kPa	877.5 ± 1.2	1576.2 ± 6.4
343.15 K, 100000 kPa	882.1 ± 1.2	1609.1 ± 6.6
353.15 K, 101.3 kPa	815.6 ± 1	–
353.15 K, 10000 kPa	823.9 ± 1	–
353.15 K, 20000 kPa	831.8 ± 1.1	–
353.15 K, 30000 kPa	838.7 ± 1.1	–
353.15 K, 40000 kPa	845 ± 1.1	–
353.15 K, 50000 kPa	850.8 ± 1.1	–
353.15 K, 60000 kPa	856.4 ± 1.1	–
353.15 K, 70000 kPa	861.8 ± 1.2	–
353.15 K, 80000 kPa	866.9 ± 1.2	–
353.15 K, 90000 kPa	871.8 ± 1.2	–
353.15 K, 100000 kPa	876.4 ± 1.2	–
363.15 K, 100 kPa	–	1120 ± 4.7
363.15 K, 101.3 kPa	808.4 ± 1	–
363.15 K, 10000 kPa	816.6 ± 1	1181.8 ± 4.9
363.15 K, 20000 kPa	824.6 ± 1.1	1236.4 ± 5.1
363.15 K, 30000 kPa	831.8 ± 1.1	1287.1 ± 5.3
363.15 K, 40000 kPa	838.6 ± 1.1	1334.2 ± 5.5
363.15 K, 50000 kPa	845 ± 1.1	1377.5 ± 5.7
363.15 K, 60000 kPa	850.6 ± 1.1	1418.8 ± 5.8
363.15 K, 70000 kPa	856.1 ± 1.2	1457.6 ± 6
363.15 K, 80000 kPa	861.3 ± 1.2	1495.5 ± 6.1
363.15 K, 90000 kPa	866.3 ± 1.2	1531 ± 6.3
363.15 K, 100000 kPa	871.1 ± 1.2	1564.6 ± 6.4
373.15 K, 101.3 kPa	800.1 ± 1	–
373.15 K, 10000 kPa	809.9 ± 1.1	–
373.15 K, 20000 kPa	817.9 ± 1.1	–
373.15 K, 30000 kPa	825.5 ± 1.1	–
373.15 K, 40000 kPa	832.4 ± 1.1	–
373.15 K, 50000 kPa	838.8 ± 1.1	–
373.15 K, 60000 kPa	844.9 ± 1.1	–
373.15 K, 70000 kPa	850.6 ± 1.2	–
373.15 K, 80000 kPa	856.2 ± 1.2	–
373.15 K, 90000 kPa	861.3 ± 1.2	–
373.15 K, 100000 kPa	866.1 ± 1.2	–
383.15 K, 100 kPa	–	1056.9 ± 4.4
383.15 K, 101.3 kPa	792.1 ± 1	–
383.15 K, 10000 kPa	802.1 ± 1.1	1122.3 ± 4.7
383.15 K, 20000 kPa	810.7 ± 1.1	1181.7 ± 4.9
383.15 K, 30000 kPa	818.5 ± 1.1	1235.6 ± 5.1
383.15 K, 40000 kPa	825.9 ± 1.1	1284.7 ± 5.3
383.15 K, 50000 kPa	832.5 ± 1.1	1330.3 ± 5.5
383.15 K, 60000 kPa	838.9 ± 1.2	1372.3 ± 5.6
383.15 K, 70000 kPa	845 ± 1.2	1412.6 ± 5.8
383.15 K, 80000 kPa	850.5 ± 1.2	1450.4 ± 5.9
383.15 K, 90000 kPa	855.9 ± 1.2	1486.9 ± 6.1
383.15 K, 100000 kPa	861 ± 1.2	1521.7 ± 6.2
393.15 K, 101.3 kPa	784.5 ± 1	–
393.15 K, 10000 kPa	794.6 ± 1.1	–
393.15 K, 20000 kPa	803.7 ± 1.1	–
393.15 K, 30000 kPa	812 ± 1.1	–
393.15 K, 40000 kPa	819.5 ± 1.1	–
393.15 K, 50000 kPa	826.4 ± 1.1	–
393.15 K, 60000 kPa	832.9 ± 1.2	–
393.15 K, 70000 kPa	839.8 ± 1.2	–
393.15 K, 80000 kPa	845.6 ± 1.2	–
393.15 K, 90000 kPa	851 ± 1.2	–
393.15 K, 100000 kPa	855.6 ± 1.2	–
403.15 K, 100 kPa	–	996.1 ± 4.2
403.15 K, 10000 kPa	–	1067.2 ± 4.5
403.15 K, 20000 kPa	–	1130.3 ± 4.7
403.15 K, 30000 kPa	–	1186.1 ± 4.9
403.15 K, 40000 kPa	–	1237.3 ± 5.1
403.15 K, 50000 kPa	–	1284.9 ± 5.3
403.15 K, 60000 kPa	–	1327.9 ± 5.5
403.15 K, 70000 kPa	–	1370 ± 5.6
403.15 K, 80000 kPa	–	1409.7 ± 5.8
403.15 K, 90000 kPa	–	1447.5 ± 5.9
403.15 K, 100000 kPa	–	1483.2 ± 6.1
